Among the data in patent US11883387B2, “PqsR inverse agonists” (HELMHOLTZ-ZENTRUM FÜR INFEKTIONSFORSCHUNG GMBH, priority 2018, dated 2024) are IC50 and solubility values, retold here.

In data set [1] the test system is P. aeruginosa pyocyanin production. The data set is described as follows: Pyocyanin assay. The class given is cell-based, P. aeruginosa PA14. Conditions: Pseudomonas aeruginosa, PA14, 16 h, read-out: IC50-value towards pyocyanin production, PA14 in PPGAS medium, 16 h. The method, then: Inhibition of P. aeruginosa pyocyanin production by compounds was determined photometrically as described before.[20] In short, an overnight culture of PA14 in PPGAS medium was washed, diluted in medium to a start OD600 of 0.02, and incubated for 16 h (37° C., 200 rpm, relative humidity 75%) in the presence of test compounds. Then, cultures were extracted with chloroform and re-extracted with 0.2 M HCl. Protonated red colored pyocyanin was determined by measuring OD520 and normalizing to OD600.

Data set [2] addresses PqsR (Pseudomonas aeruginosa, UniProt Q9I4X0). The data set is described as follows: E. coli based β-galactosidase reporter gene assay (PqsR inverse agonistic activity). The class given is cell-based. Also noted: expressed in transfected cells; host or cells: Escherichia coli DH5α. The procedure, abridged: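 E. coli DH5α carrying pEAL08-2 (tac-driven pqsR with pqsA-lacZ) was grown to OD600 0.2 and incubated with 0.001–10 μM compound plus 50 nM PQS for 2.5 h at 37 °C. β-Galactosidase activity was measured by ONPG conversion in permeabilized cells and normalized between the no-PQS and solvent controls. IC50 came from concentration variation.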

A short description of data set [3]: Kinetic Turbidimetric Aqueous Solubility at room temperature for 5 min. Conditions: PBS buffer, kinetic from dmso stock, 2% DMSO. Format: physicochemical. The method, then: Kinetic Turbidimetric Aqueous Solubility at room temperature for 5 min. Test compound was diluted in PBS buffer to give a range of concentrations (typically 0.4, 2, 4, 20, 40, 100, and 200 μM, final DMSO concentration 2%) and incubated at room temperature for 5 min. Absorbance was measured at a wavelength of 620 nm and the solubility was estimated from the concentration of test compound that produces an increase in absorbance above the vehicle control (i.e., […]). Data was analyzed by fitting a four parameter sigmoidal function to the measured and normalized absorbances and AUC calculation providing access to Log S (decadic logarithm of the solubility).

Chain of PqsR (Q9I4X0 whole entry): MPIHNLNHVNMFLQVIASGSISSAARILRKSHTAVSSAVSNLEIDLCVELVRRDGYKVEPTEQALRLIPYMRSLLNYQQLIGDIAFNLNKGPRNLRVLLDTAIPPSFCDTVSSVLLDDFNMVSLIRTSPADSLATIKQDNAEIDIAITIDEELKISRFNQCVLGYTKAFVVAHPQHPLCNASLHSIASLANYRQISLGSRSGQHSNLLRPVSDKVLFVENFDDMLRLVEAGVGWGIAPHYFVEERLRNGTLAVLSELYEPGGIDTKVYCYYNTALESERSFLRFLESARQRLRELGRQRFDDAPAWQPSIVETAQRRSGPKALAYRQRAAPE

As a reminder, the IC50 is the concentration that inhibits the measured activity by half. The term solubility denotes how much of the substance goes into solution per volume. Read a high solubility as a readily soluble substance. On to `FC(F)(F)c1cc(SCc2ccc(-c3ccc(Cl)nc3)cn2)ccn1` [Compound 112, 6-Chloro-6′-(((2-(trifluoromethyl)pyridin-4-yl)thio)methyl)-3,3′-bipyridine], for which the IC50 in data set [1] lay in the range of 1000 to 5000 nM; in data set [2], 51 to 250 nM. In data set [3], this compound yielded a solubility at 5 min greater than 25 µM.

For `Nc1cc(SCc2nc3cc(Oc4cccnc4)ccc3[nH]2)nc(C(F)(F)F)n1` [Compound 174, 6-(((5-(pyridin-3-yloxy)-1H-benzo[d]imidazol-2-yl)methyl)thio)-2-(trifluoromethyl)pyrimidin-4-amine], in data set [1], the IC50 fell in the range of 251 to 1000 nM. The compound further displayed a solubility at 5 min in data set [3] of no less than 100 µM.

Take `CC(C)Oc1ccc(-n2cc(CNc3cc(Cl)nc(C(F)(F)F)c3)nn2)cc1Cl` [Compound 042, 2-Chloro-N-((1-(3-chloro-4-isopropoxyphenyl)-1H-1,2,3-triazol-4-yl)methyl)-6-(trifluoromethyl)pyridin-4-amine]: the IC50 in data set [1] is no more than 250 nM; in data set [2] it was no more than 50 nM. The solubility at 5 min in data set [3] is greater than 10 µM.

Turning to `Fc1ccc(Oc2ccc3[nH]c(CSc4ccnc(C(F)(F)F)c4)nc3c2)cc1` [Compound 173, 5-(4-fluorophenoxy)-2-(((2-(trifluoromethyl)pyridin-4-yl)thio)methyl)-1H-benzo[d]imidazole], in data set [1], the concentration for half-maximal inhibition (IC50) lay in the range of 251 to 1000 nM. The same compound gave a solubility at 5 min in data set [3] greater than 25 µM.

For the compound `CC(C)Oc1ccc(-c2ncc(CNc3cc(Cl)nc(C(F)(F)F)c3)cn2)cc1Cl` [Compound 166], the IC50 is no more than 250 nM in data set [1] and no more than 50 nM in data set [2]. The compound further returned a solubility at 5 min in data set [3] greater than 25 µM.

`FC(F)(F)c1cc(NCc2cn(-c3ccc(OC4CCOC4)c(Cl)c3)nn2)ccn1` (centres unmarked) [Compound 153, N-((1-(3-chloro-4-((tetrahydrofuran-3-yl)oxy)phenyl)-1H-1,2,3-triazol-4-yl)methyl)-2-(trifluoromethyl)pyridin-4-amine]: the figures for the IC50 in data set [1] and in data set [2] were 251 to 1000 nM and no more than 50 nM, respectively. Besides, in data set [3], the solubility at 5 min was greater than 25 µM.

Turning to `FC(F)(F)c1cc(NCc2nc3cc(Oc4ccccc4)ccc3[nH]2)ccn1` [Compound 182, N-((5-phenoxy-1H-benzo[d]imidazol-2-yl)methyl)-2-(trifluoromethyl)pyridin-4-amine], the IC50 in data set [1] is 251 to 1000 nM; in data set [2], no more than 50 nM. Moreover, the solubility at 5 min in data set [3] was greater than 50 µM.

As to `N#Cc1cc(NCc2cn(-c3ccc(Oc4ccccc4)cc3)nn2)cc(Cl)n1` [Compound 051, 6-Chloro-4-(((1-(4-phenoxyphenyl)-1H-1,2,3-triazol-4-yl)methyl)amino)picolinonitrile], the IC50 in data set [1] is no more than 250 nM; in data set [2] it was no more than 50 nM. Also, in data set [3], the solubility at 5 min is greater than 50 µM.

Consider `COc1ccc(-c2ncc(CNc3ccnc(C(F)(F)F)c3)s2)cc1C` [Compound 074, N-((2-(4-Methoxy-3-methylphenyl)thiazol-5-yl)methyl)-2-(trifluoromethyl)pyridin-4-amine], for which the results for the IC50 in data set [1] and in data set [2] were 251 to 1000 nM and 51 to 250 nM, respectively. Further, the solubility at 5 min in data set [3] is greater than 25 µM.

`FC(F)(F)c1cc(NCc2nnc(-c3ccc(Oc4ccccc4)cc3)[nH]2)ccn1` [Compound 095, N-((5-(4-Phenoxyphenyl)-4H-1,2,4-triazol-3-yl)methyl)-2-(trifluoromethyl)pyridin-4-amine]: the IC50 in data set [1] lay within 251 to 1000 nM; in data set [2], 51 to 250 nM. The solubility at 5 min in data set [3] is greater than 25 µM.

Regarding `Nc1cc(SCc2nc3cc(Oc4ccccc4)ccc3[nH]2)cc(C(F)(F)F)n1` [Compound 183, 4-(((5-phenoxy-1H-benzo[d]imidazol-2-yl)methyl)thio)-6-(trifluoromethyl)pyridin-2-amine], the half-inhibitory concentration (IC50) in data set [1] was no more than 250 nM; in data set [2], no more than 50 nM. In data set [3], this compound yielded a solubility at 5 min greater than 25 µM.

On to `FC(F)(F)c1cc(OCc2nc3cc(Oc4ccccc4)ccc3[nH]2)ccn1` [Compound 177, 5-phenoxy-2-(((2-(trifluoromethyl)pyridin-4-yl)oxy)methyl)-1H-benzo[d]imidazole], for which the IC50 in data set [1] lay in the range of 1000 to 5000 nM; in data set [2] it was 251 to 1000 nM. In addition, the solubility at 5 min in data set [3] was greater than 25 µM.

Regarding `FC(F)(F)c1cc(SCc2nc3cc(Cl)c(Cl)cc3[nH]2)ccn1` [Compound 119, 5,6-Dichloro-2-(((2-(trifluoromethyl)pyridin-4-yl)thio)methyl)-1H-benzo[d]imidazole], the IC50 in data set [1] is 1000 to 5000 nM; in data set [2], 51 to 250 nM. This compound also registered a solubility at 5 min in data set [3] greater than 25 µM.

For `FC(F)(F)c1cc(NCc2ncc(-c3ccc(Oc4ccccc4)cc3)s2)ccn1` [Compound 078, N-((5-(4-Phenoxyphenyl)thiazol-2-yl)methyl)-2-(trifluoromethyl)pyridin-4-amine], the IC50 is no more than 250 nM in data set [1] and no more than 50 nM in data set [2]. Further, in data set [3], the solubility at 5 min was greater than 10 µM.

With `CC(C)Oc1ccc(-n2cc(CNc3ccnc([N+](=O)[O-])c3)nn2)cc1Cl` [Compound 157, N-((1-(3-chloro-4-isopropoxyphenyl)-1H-1,2,3-triazol-4-yl)methyl)-2-nitropyridin-4-amine], the half-inhibitory concentration (IC50) in data set [1] was no more than 250 nM; in data set [2], no more than 50 nM. Further, the solubility at 5 min in data set [3] is greater than 10 µM.

`Fc1cc2nc(CSc3ccnc(C(F)(F)F)c3)[nH]c2cc1Cl` [Compound 180, 6-chloro-5-fluoro-2-(((2-(trifluoromethyl)pyridin-4-yl)thio)methyl)-1H-benzo[d]imidazole]: the values for the IC50 in data set [1] and in data set [2] were 1000 to 5000 nM and 251 to 1000 nM, respectively. This compound also came in with a solubility at 5 min in data set [3] greater than 50 µM.

Consider `FC(F)(F)c1cc(SCc2nc3cc(Sc4ccccc4)ccc3[nH]2)ccn1` [Compound 176, 5-(phenylthio)-2-(((2-(trifluoromethyl)pyridin-4-yl)thio)methyl)-1H-benzo[d]imidazole], for which the half-inhibitory concentration (IC50) is 251 to 1000 nM in data set [1] and no more than 50 nM in data set [2]. In data set [3], this compound returned a solubility at 5 min greater than 10 µM.

For `COc1ccc(-c2ccc(CNc3ccnc(C(F)(F)F)c3)nc2)cc1Cl` [Compound 104, N-((5-(3-Chloro-4-methoxyphenyl)pyridin-2-yl)methyl)-2-(trifluoromethyl)pyridin-4-amine], the IC50 in data set [1] was 1000 to 5000 nM; in data set [2], 51 to 250 nM. This compound also displayed a solubility at 5 min in data set [3] greater than 10 µM.

`CSc1ccc(-n2cc(CNc3ccnc(C(F)(F)F)c3)nn2)cc1Cl` [Compound 038, N-((1-(3-Chloro-4-(methylthio)phenyl)-1H-1,2,3-triazol-4-yl)methyl)-2-(trifluoromethyl)pyridin-4-amine] showed an IC50 in data set [2] of no more than 50 nM. This compound also came in with a solubility at 5 min in data set [3] greater than 25 µM.

In data set [2], `Nc1cc(SCc2nc3cc(Cl)c(Cl)cc3[nH]2)nc(C(F)(F)F)n1` [Compound 117, 6-(((5,6-Dichloro-1H-benzo[d]imidazol-2-yl)methyl)thio)-2-(trifluoromethyl)pyrimidin-4-amine] came in with an IC50 of 51 to 250 nM. For the same compound, in data set [3], the solubility at 5 min is greater than 50 µM.

Turning to `N#Cc1cc(SCc2nc3cc(Oc4ccccc4)ccc3[nH]2)ccn1` [Compound 175, 4-(((5-phenoxy-1H-benzo[d]imidazol-2-yl)methyl)thio)picolinonitrile], the IC50 in data set [1] lay within 251 to 1000 nM. The compound further yielded a solubility at 5 min in data set [3] greater than 25 µM.

In the case of `CC(C)Oc1ccc(-n2cc(CNc3ccnc(C(F)(F)F)c3)nn2)cc1` [Compound 035, N-((1-(4-Isopropoxyphenyl)-1H-1,2,3-triazol-4-yl)methyl)-2-(trifluoromethyl)pyridin-4-amine], the half-maximal inhibitory concentration (IC50) in data set [2] was no more than 50 nM. This compound returned a solubility at 5 min in data set [3] of no less than 100 µM.

Compound `COc1ncc(-c2ccc(CNc3ccnc(C(F)(F)F)c3)nc2)cc1Cl` [Compound 101, N-((5′-Chloro-6′-methoxy-[3,3′-bipyridin]-6-yl)methyl)-2-(trifluoromethyl)pyridin-4-amine] came in with a half-inhibitory concentration (IC50) in data set [2] of 51 to 250 nM. The compound further returned a solubility at 5 min in data set [3] greater than 25 µM.

As to `FC(F)(F)c1cc(NCc2cn(-c3ccc(-n4ccc5ccncc54)cc3)nn2)ccn1` [Compound 043, N-((1-(4-(1H-pyrrolo[2,3-c]pyridin-1-yl)phenyl)-1H-1,2,3-triazol-4-yl)methyl)-2-(trifluoromethyl)pyridin-4-amine], the half-inhibitory concentration (IC50) in data set [2] is no more than 50 nM. Moreover, in data set [3], the solubility at 5 min is greater than 25 µM.

For the compound `FC(F)(F)c1cc(NCc2cn(-c3ccc(-n4ccc5cccnc54)cc3)nn2)ccn1` [Compound 044, N-((1-(4-(1H-pyrrolo[2,3-b]pyridin-1-yl)phenyl)-1H-1,2,3-triazol-4-yl)methyl)-2-(trifluoromethyl)pyridin-4-amine], the IC50 in data set [2] is no more than 50 nM. In addition, the solubility at 5 min in data set [3] was greater than 10 µM.

`FC(F)(F)c1cc(NCc2nc(-c3ccc(Oc4ccccc4)cc3)cs2)ccn1` [Compound 079, N-((4-(4-Phenoxyphenyl)thiazol-2-yl)methyl)-2-(trifluoromethyl)pyridin-4-amine] returned a half-maximal inhibitory concentration (IC50) in data set [2] of 251 to 1000 nM. This compound also returned a solubility at 5 min in data set [3] greater than 25 µM.
